Results reported in US7981903B2, “2-[2-{phenylamino}-1H-pyrrolo[2,3-D]pyrimidin-4-yl)amino] benzamide derivatives as IGF-1R inhibitors for the treatment of cancer” (GlaxoSmithKline LLC, priority 2007, dated 2011).

Assays:
[1] = biological target: T1, NIH-3T3 cells overexpressing human IR (Homo sapiens, UniProt P06213); test: IR cellular autophosphorylation (DELFIA); format: cell-based; conditions: 2 h compound, insulin 3 ug/ml for 15 minutes, IC50 category
T1 construct: expressed in transfected cells; host or cells: NIH-3T3 (mouse fibroblasts)
Procedure, shortened: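 Receptor autophosphorylation measured by DELFIA, capturing IGF-1R or IRβ and detecting with europium anti-pTyr, reported as percent of IGF-1- or insulin-stimulated signal. Compounds (30 uM to 1.5 nM) added 2 h before ligand, then 15 min stimulation (IGF-1 30 ng/ml or insulin 3 ug/ml).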

ALK = ALK (Homo sapiens, UniProt Q9UM73); test: ALK enzyme assay (HTRF); format: biochemical; conditions: 0.25 nM ALK, 15.0 μM ATP, values given as pIC50 category
Procedure, shortened: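 Final compound range 0.00017 to 10 μM (twelve 1:3 dilutions). Kinase reaction with ATP and biotinylated synthetic peptide runs 120 min at 20° C, stopped with EDTA; phosphotyrosine detected by HTRF after 60 min. Inhibition referenced to DMSO (1%) and EDTA (0.1 M) controls, curve-fitted.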

NCI-H929 = test: Inhibition of cell proliferation (CellTiter-Glo or InCell analyzer), NCI-H929; format: cell-based; conditions: Homo sapiens, 72 h / 3 days, values given as IC50 category
Procedure, shortened: In one

Colo205 = test: Inhibition of cell proliferation (CellTiter-Glo or InCell analyzer), Colo205; format: cell-based; conditions: Homo sapiens, COLO 205, 72 h / 3 days, values given as IC50 category
Procedure, shortened: In one

Sequence of ALK (Q9UM73 19-1620): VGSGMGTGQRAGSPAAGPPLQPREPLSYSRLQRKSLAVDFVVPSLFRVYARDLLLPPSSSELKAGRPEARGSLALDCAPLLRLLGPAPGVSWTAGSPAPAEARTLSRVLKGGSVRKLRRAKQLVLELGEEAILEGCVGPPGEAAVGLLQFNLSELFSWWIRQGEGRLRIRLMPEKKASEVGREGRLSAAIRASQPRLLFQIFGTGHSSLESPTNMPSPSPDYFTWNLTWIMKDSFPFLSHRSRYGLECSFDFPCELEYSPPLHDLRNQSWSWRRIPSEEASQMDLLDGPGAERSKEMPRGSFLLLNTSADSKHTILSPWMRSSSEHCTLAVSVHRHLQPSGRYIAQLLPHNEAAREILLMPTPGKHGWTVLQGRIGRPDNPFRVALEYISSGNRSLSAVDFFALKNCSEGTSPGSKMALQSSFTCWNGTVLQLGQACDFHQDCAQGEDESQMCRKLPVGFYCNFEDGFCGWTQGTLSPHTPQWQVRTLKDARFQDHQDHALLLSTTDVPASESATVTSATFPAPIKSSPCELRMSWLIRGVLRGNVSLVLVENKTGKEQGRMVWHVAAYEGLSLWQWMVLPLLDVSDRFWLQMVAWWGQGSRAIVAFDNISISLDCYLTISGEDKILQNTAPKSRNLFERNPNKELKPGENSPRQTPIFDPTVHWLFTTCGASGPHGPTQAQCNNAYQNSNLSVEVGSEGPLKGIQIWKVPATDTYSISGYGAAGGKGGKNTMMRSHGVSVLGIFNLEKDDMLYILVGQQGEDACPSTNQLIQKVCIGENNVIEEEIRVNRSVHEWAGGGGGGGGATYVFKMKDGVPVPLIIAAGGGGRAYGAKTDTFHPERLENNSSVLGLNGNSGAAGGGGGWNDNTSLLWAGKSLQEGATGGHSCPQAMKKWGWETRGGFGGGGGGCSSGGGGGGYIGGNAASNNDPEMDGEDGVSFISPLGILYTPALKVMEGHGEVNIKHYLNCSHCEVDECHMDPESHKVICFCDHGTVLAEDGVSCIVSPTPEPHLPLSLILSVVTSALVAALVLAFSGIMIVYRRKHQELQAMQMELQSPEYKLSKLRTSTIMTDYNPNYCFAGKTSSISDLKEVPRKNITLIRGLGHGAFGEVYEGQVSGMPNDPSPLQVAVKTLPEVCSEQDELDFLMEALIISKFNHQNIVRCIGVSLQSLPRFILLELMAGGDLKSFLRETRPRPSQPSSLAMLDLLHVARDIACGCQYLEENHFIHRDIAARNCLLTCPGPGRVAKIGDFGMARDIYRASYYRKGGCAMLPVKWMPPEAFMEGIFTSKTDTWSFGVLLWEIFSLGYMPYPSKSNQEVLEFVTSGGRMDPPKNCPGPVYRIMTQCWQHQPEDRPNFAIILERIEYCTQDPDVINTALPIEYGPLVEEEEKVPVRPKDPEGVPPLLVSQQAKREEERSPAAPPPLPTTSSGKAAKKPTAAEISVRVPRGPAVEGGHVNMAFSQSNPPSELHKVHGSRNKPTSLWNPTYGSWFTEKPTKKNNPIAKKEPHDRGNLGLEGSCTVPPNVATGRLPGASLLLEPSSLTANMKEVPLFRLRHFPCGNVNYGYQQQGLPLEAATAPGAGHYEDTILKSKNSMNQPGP
T1 sequence (P06213 28-1382): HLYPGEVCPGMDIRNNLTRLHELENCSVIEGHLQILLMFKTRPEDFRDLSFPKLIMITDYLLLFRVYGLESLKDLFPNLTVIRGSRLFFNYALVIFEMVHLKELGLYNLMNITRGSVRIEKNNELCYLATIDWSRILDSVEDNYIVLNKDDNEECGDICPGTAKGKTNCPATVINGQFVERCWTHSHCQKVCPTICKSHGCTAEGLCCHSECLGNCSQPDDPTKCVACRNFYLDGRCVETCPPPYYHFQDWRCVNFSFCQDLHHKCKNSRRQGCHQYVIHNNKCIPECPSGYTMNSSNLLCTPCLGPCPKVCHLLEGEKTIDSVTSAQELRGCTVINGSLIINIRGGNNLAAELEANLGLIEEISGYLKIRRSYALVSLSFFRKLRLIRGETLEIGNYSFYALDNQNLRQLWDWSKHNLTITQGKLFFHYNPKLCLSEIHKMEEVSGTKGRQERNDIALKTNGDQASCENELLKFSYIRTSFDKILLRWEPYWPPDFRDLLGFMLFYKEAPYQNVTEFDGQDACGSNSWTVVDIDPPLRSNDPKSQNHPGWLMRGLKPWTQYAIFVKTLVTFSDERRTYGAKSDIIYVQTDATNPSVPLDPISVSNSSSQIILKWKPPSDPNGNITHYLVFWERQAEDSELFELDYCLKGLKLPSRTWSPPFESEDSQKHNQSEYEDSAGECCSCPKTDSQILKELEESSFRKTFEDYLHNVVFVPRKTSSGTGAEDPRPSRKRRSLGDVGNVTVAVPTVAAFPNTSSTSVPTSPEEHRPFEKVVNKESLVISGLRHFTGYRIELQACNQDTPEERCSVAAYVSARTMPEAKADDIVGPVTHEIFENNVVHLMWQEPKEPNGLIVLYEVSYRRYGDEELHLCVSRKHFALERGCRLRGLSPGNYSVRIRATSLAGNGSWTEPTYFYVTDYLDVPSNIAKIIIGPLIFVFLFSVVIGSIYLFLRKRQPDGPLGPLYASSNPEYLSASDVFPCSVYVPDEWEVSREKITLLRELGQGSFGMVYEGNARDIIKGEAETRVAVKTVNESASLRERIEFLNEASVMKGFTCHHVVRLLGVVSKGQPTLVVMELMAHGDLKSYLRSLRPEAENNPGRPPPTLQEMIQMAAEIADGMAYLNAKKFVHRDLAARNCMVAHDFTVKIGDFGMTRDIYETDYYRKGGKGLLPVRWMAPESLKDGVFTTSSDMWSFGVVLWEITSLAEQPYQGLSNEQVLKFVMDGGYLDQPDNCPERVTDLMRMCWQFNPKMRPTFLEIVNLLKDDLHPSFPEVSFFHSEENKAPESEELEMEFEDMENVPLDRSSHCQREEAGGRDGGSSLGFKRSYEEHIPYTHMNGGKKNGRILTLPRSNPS

Row | IC50 [1] | IC50 (ALK) | IC50 (NCI-H929) | IC50 (Colo205) | SMILES
1 | 100 to 500 nM | 0.251 to 1 nM | < 250 nM | < 250 nM | COc1cc(N2CCN(C(C)C)CC2)ccc1Nc1nc(Nc2ccccc2C(N)=O)c2cc[nH]c2n1 [Example 7, 2-[(2-{[4-[4-(1-methylethyl)-1-piperazinyl]-2-(methyloxy)phenyl]amino}-1H-pyrrolo[2,3-d]pyrimidin-4-yl)amino]benzamide]
2 | > 500 nM | 1.26 to 3.98 nM | < 250 nM | > 1000 nM | COc1cc2c(cc1Nc1nc(Nc3cccc(F)c3C(N)=O)c3cc[nH]c3n1)CN(CCCN(C)C)CC2 [Example 232, 2-[(2-{[2-[3-(dimethylamino)propyl]-6-(methyloxy)-1,2,3,4-tetrahydro-7-isoquinolinyl]amino}-1H-pyrrolo[2,3-d]pyrimidin-4-yl)amino]-6-fluorobenzamide]
3 | < 100 nM | 0.251 to 1 nM | < 250 nM | 250 to 1000 nM | COc1cc(N2CCN(C(C)C)CC2)ccc1Nc1nc(Nc2cc(F)cc(F)c2C(N)=O)c2cc[nH]c2n1 [Example 89, 2,4-difluoro-6-[(2-{[4-[4-(1-methylethyl)-1-piperazinyl]-2-(methyloxy)phenyl]amino}-1H-pyrrolo[2,3-d]pyrimidin-4-yl)amino]benzamide]
4 | > 500 nM | 1.26 to 3.98 nM | 250 to 1000 nM | > 1000 nM | CNC(=O)c1c(F)cccc1Nc1nc(Nc2cc3c(cc2OC)CCN3C(C)=O)nc2[nH]ccc12 [Example 135, 2-[(2-{[1-acetyl-5-(methyloxy)-2,3-dihydro-1H-indol-6-yl]amino}-1H-pyrrolo[2,3-d]pyrimidin-4-yl)amino]-6-fluoro-N-methylbenzamide]
5 | > 500 nM | 5.01 to 200 nM | 250 to 1000 nM | > 1000 nM | COc1cc2c(cc1Nc1nc(Nc3cccc(F)c3C(N)=O)c3cc[nH]c3n1)CN(C(=O)CCN1CCN(C(C)C)CC1)CC2 [Example 229, 2-fluoro-6-[(2-{[2-{3-[4-(1-methylethyl)-1-piperazinyl]propanoyl}-6-(methyloxy)-1,2,3,4-tetrahydro-7-isoquinolinyl]amino}-1H-pyrrolo[2,3-d]pyrimidin-4-yl)amino]benzamide]
6 | 100 to 500 nM | 0.251 to 1 nM | 250 to 1000 nM | 250 to 1000 nM | CNC(=O)c1c(F)cccc1Nc1nc(Nc2cc3c(cc2OC)CCN3C(=O)CN(C)C)nc2[nH]cc(C)c12 [Example 258, 2-[(2-{[1-(N,N-dimethylglycyl)-5-(methyloxy)-2,3-dihydro-1H-indol-6-yl]amino}-5-methyl-1H-pyrrolo[2,3-d]pyrimidin-4-yl)amino]-6-fluoro-N-methylbenzamide]
7 | > 500 nM | 5.01 to 200 nM | 250 to 1000 nM | > 1000 nM | COc1cc2c(cc1Nc1nc(Nc3cccc(F)c3C(N)=O)c3cc[nH]c3n1)CN(C(=O)CCN1CCOCC1)CC2 [Example 231, 2-fluoro-6-{[2-({6-(methyloxy)-2-[3-(4-morpholinyl)propanoyl]-1,2,3,4-tetrahydro-7-isoquinolinyl}amino)-1H-pyrrolo[2,3-d]pyrimidin-4-yl]amino}benzamide]
8 | < 100 nM | 0.251 to 1 nM | < 250 nM | < 250 nM | COc1cc2c(cc1Nc1nc(Nc3cc(F)cc(F)c3C(N)=O)c3cc[nH]c3n1)N(C(=O)CN(C)C)CCC2 [Example 178, 2-[(2-{[1-(N,N-dimethylglycyl)-6-(methyloxy)-1,2,3,4-tetrahydro-7-quinolinyl]amino}-1H-pyrrolo[2,3-d]pyrimidin-4-yl)amino]-4,6-difluorobenzamide]
9 | < 100 nM | 0.251 to 1 nM | < 250 nM | < 250 nM | COc1cc2c(cc1Nc1nc(Nc3cccc(F)c3C(N)=O)c3cc[nH]c3n1)N(C(=O)CN(C)C)CCC2 [Example 210, 2-[(2-{[1-(N,N-dimethylglycyl)-6-(methyloxy)-1,2,3,4-tetrahydro-7-quinolinyl]amino}-1H-pyrrolo[2,3-d]pyrimidin-4-yl)amino]-6-fluorobenzamide]
10 | < 100 nM | 1.26 to 3.98 nM | < 250 nM | 250 to 1000 nM | COc1cc2c(cc1Nc1nc(Nc3cc(Cl)cc(F)c3C(N)=O)c3cc[nH]c3n1)N(C(=O)CN1CCCC1)CC2 [Example 175, 4-chloro-2-fluoro-6-[(2-{[5-(methyloxy)-1-(1-pyrrolidinylacetyl)-2,3-dihydro-1H-indol-6-yl]amino}-1H-pyrrolo[2,3-d]pyrimidin-4-yl)amino]benzamide]
11 | 100 to 500 nM | 0.251 to 1 nM | < 250 nM | 250 to 1000 nM | COc1cc(N2CCCN(C(C)C)CC2)ccc1Nc1nc(Nc2cccc(F)c2C(N)=O)c2cc[nH]c2n1 [Example 208, 2-fluoro-6-[(2-{[4-[4-(1-methylethyl)hexahydro-1H-1,4-diazepin-1-yl]-2-(methyloxy)phenyl]amino}-1H-pyrrolo[2,3-d]pyrimidin-4-yl)amino]benzamide]
12 | 100 to 500 nM | 0.251 to 1 nM | < 250 nM | < 250 nM | CCCN1CCC=C(c2ccc(Nc3nc(Nc4ccccc4C(N)=O)c4cc[nH]c4n3)c(OC)c2)C1 [Example 2, 2-[(2-{[2-(methyloxy)-4-(1-propyl-1,2,5,6-tetrahydro-3-pyridinyl)phenyl]amino}-1H-pyrrolo[2,3-d]pyrimidin-4-yl)amino]benzamide]
13 | > 500 nM | 0.251 to 1 nM | < 250 nM | < 250 nM | COc1cc(N2CCN(S(C)(=O)=O)CC2)ccc1Nc1nc(Nc2cccc(F)c2C(N)=O)c2cc[nH]c2n1 [Example 204, 2-fluoro-6-{[2-({2-(methyloxy)-4-[4-(methylsulfonyl)-1-piperazinyl]phenyl}amino)-1H-pyrrolo[2,3-d]pyrimidin-4-yl]amino}benzamide]
14 | < 100 nM | 0.251 to 1 nM | < 250 nM | < 250 nM | COc1cc(C2CCN(C(C)C)CC2)ccc1Nc1nc(Nc2ccc(F)cc2C(N)=O)c2cc[nH]c2n1 [Example 58, 5-fluoro-2-[(2-{[4-[1-(1-methylethyl)-4-piperidinyl]-2-(methyloxy)phenyl]amino}-1H-pyrrolo[2,3-d]pyrimidin-4-yl)amino]benzamide]
15 | < 100 nM | 0.251 to 1 nM | < 250 nM | < 250 nM | CNC(=O)c1c(F)cc(F)cc1Nc1nc(Nc2cc3c(cc2OC)CCCN3C(=O)CN(C)C)nc2[nH]ccc12 [Example 179, 2-[(2-{[1-(N,N-dimethylglycyl)-6-(methyloxy)-1,2,3,4-tetrahydro-7-quinolinyl]amino}-1H-pyrrolo[2,3-d]pyrimidin-4-yl)amino]-4,6-difluoro-N-methylbenzamide]
16 | < 100 nM | 0.251 to 1 nM | < 250 nM | < 250 nM | COc1cc2c(cc1Nc1nc(Nc3cccc(F)c3C(N)=O)c3cc[nH]c3n1)N(C(=O)CN(C)C)CC2 [Example 53, 2-[(2-{[1-(N,N-dimethylglycyl)-5-(methyloxy)-2,3-dihydro-1H-indol-6-yl]amino}-1H-pyrrolo[2,3-d]pyrimidin-4-yl)amino]-6-fluorobenzamide]
17 | 100 to 500 nM | 1.26 to 3.98 nM | < 250 nM | 250 to 1000 nM | COc1cc2c(cc1Nc1nc(Nc3cccc(F)c3C(N)=O)c3cc[nH]c3n1)CN(C)CC2 [Example 121, 2-fluoro-6-[(2-{[2-methyl-6-(methyloxy)-1,2,3,4-tetrahydro-7-isoquinolinyl]amino}-1H-pyrrolo[2,3-d]pyrimidin-4-yl)amino]benzamide]
18 | < 100 nM | 5.01 to 200 nM | > 1000 nM | > 1000 nM | CNC(=O)c1c(F)cccc1Nc1nc(Nc2cc(N(C)C(=O)CN(C)C)ccc2OC)nc2[nH]ccc12 [Example 242, 2-[(2-{[5-[(N,N-dimethylglycyl)(methyl)amino]-2-(methyloxy)phenyl]amino}-1H-pyrrolo[2,3-d]pyrimidin-4-yl)amino]-6-fluoro-N-methylbenzamide]
19 | 100 to 500 nM | 5.01 to 200 nM | < 250 nM | 250 to 1000 nM | CNC(=O)c1cc2ccccc2cc1Nc1nc(Nc2cc3c(cc2OC)CCN3C(=O)CN(C)C)nc2[nH]ccc12 [Example 125, 3-[(2-{[1-(N,N-dimethylglycyl)-5-(methyloxy)-2,3-dihydro-1H-indol-6-yl]amino}-1H-pyrrolo[2,3-d]pyrimidin-4-yl)amino]-N-methyl-2-naphthalenecarboxamide]
20 | 100 to 500 nM | 1.26 to 3.98 nM | 250 to 1000 nM | > 1000 nM | CCC(C)N1CCc2cc(OC)c(Nc3nc(Nc4cccc(F)c4C(=O)NC)c4cc[nH]c4n3)cc2C1 (stereo not drawn) [Example 238, 2-fluoro-N-methyl-6-[(2-{[6-(methyloxy)-2-(1-methylpropyl)-1,2,3,4-tetrahydro-7-isoquinolinyl]amino}-1H-pyrrolo[2,3-d]pyrimidin-4-yl)amino]benzamide]
21 | < 100 nM | 1.26 to 3.98 nM | < 250 nM | < 250 nM | CCCN(C)CC(=O)N1CCc2cc(OC)c(Nc3nc(Nc4cccc(F)c4C(N)=O)c4cc[nH]c4n3)cc21 [Example 168, 2-fluoro-6-[(2-{[5-(methyloxy)-1-(N-methyl-N-propylglycyl)-2,3-dihydro-1H-indol-6-yl]amino}-1H-pyrrolo[2,3-d]pyrimidin-4-yl)amino]benzamide]
